Literature values as cited in patent publication US20130243861A1, “PRESS-COATED TABLETS OF PREDNISONE” (CADILA HEALTHCARE LIMITED, priority 2012, published 2013).

solubility in water: very slightly soluble
SMILES: C[C@]12C=CC(=O)C=C1CC[C@@H]1[C@@H]2C(=O)C[C@@]2(C)[C@H]1CC[C@]2(O)C(=O)CO [Prednisone, pregna-1,4-diene-3,11,20-trione, 17,21-dihydroxy-]
